Converted amounts (≈) assume the structure as drawn.
What was measured:
S. aureus DSM 20231 [1] = test: fitness (endpoint OD595 vs no drug) (fraction); higher = more growth
How it was run: (§1)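 Volumes were 30 µl per well, or 55 µl for S. pneumoniae, in 384-well plates inoculated at OD595 0.01. Media were TSB, LB Lennox or CY at 37 °C, and OD595 was read every 30 min for 14 h with first-reading background subtraction. Fitness is the ratio of optical density at stationary-phase entry to the robust mean of no-drug controls. That ratio is capped at 1.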

S. pneumoniae D39V [2] = test: as above
How it was run: as §1

S. aureus Newman [3] = test: as above
How it was run: as §1

B. subtilis 168 [4] = test: as above
How it was run: as §1

S. aureus DSM 20231 [5] = test: Bliss interaction score (quartile over a dose matrix) (fitness difference); higher = more antagonism (negative = synergy)
How it was run: (§2)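 The Bliss score was calculated by subtracting the expected fitness, the product of single-drug values, from the observed fitness. OD595 at entry into stationary phase, over the plate's robust no-drug mean and capped at 1, served as the fitness readout. Single-drug values were inferred from combination data, and scores are summarised by quartiles across technical, biological and donor/recipient replicates.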

S. pneumoniae D39V [6] = test: as above
How it was run: as §2

S. aureus Newman [7] = test: as above
How it was run: as §2

B. subtilis 168 [8] = test: as above
How it was run: as §2

S. aureus DSM 20231 [9] = tested on: S. aureus DSM 20231
S. pneumoniae D39V [10] = tested on: S. pneumoniae D39V
S. aureus Newman [11] = tested on: S. aureus Newman
B. subtilis 168 [12] = tested on: B. subtilis 168
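Throughout, for Bliss interaction score (quartile over a dose matrix): first quartile when negative (synergy) and third quartile when positive (antagonism).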

CCN(CC)CCOC(=O)c1ccc(N)cc1 [Procaine] + CN1C2=CC=CC=C2N=C3C1=CC=CC3=O [Pyocyanin]
fitness
Conditions	first compound 85.5 µg/mL	first compound 171 µg/mL	first compound 342 µg/mL
B. subtilis 168 [4], partner 1.25 µg/mL	0.871	0.869	0.848
B. subtilis 168 [4], partner 2.5 µg/mL	0.846	0.863	0.748
B. subtilis 168 [4], partner 5 µg/mL	0.683	0.669	0.647
S. aureus DSM 20231 [1], partner 1.25 µg/mL	0.938	≥ 1	≥ 1
S. aureus DSM 20231 [1], partner 2.5 µg/mL	0.854	0.986	≥ 1
S. aureus DSM 20231 [1], partner 5 µg/mL	0.54	0.591	0.56
S. aureus Newman [3], partner 1.25 µg/mL	0.864	0.89	0.798
S. aureus Newman [3], partner 2.5 µg/mL	0.782	0.748	0.776
S. aureus Newman [3], partner 5 µg/mL	–	0.448	–
S. pneumoniae D39V [2], partner 0.325 µg/mL	≥ 1	0.998	0.991
S. pneumoniae D39V [2], partner 0.65 µg/mL	0.975	≥ 1	0.966

S. pneumoniae D39V [2], partner 1.3 µg/mL, one replicate
Conditions	fitness
first compound 85.5 µg/mL	0.433
first compound 171 µg/mL	0.585
first compound 342 µg/mL	0.524

Conditions	Bliss interaction score
B. subtilis 168 [8]	-0.0724
S. aureus DSM 20231 [5]	-0.0817
S. aureus Newman [7]	0.148
S. pneumoniae D39V [6]	-0.0685

CCN(CC)CCOC(=O)c1ccc(N)cc1 [Procaine] + CN(N=O)C(=O)N[C@@H](C=O)[C@@H](O)[C@H](O)[C@H](O)CO [Streptozotocin]
fitness
Conditions	first compound 85.5 µg/mL	first compound 171 µg/mL	first compound 342 µg/mL
S. aureus DSM 20231 [1], partner 0.15 µg/mL	0.822	0.848	0.851
S. aureus DSM 20231 [1], partner 0.3 µg/mL	0.724	0.799	0.786
S. aureus DSM 20231 [1], partner 0.6 µg/mL	0.593	0.682	0.651
S. aureus Newman [3], partner 0.15 µg/mL	0.894	0.85	0.904
S. aureus Newman [3], partner 0.3 µg/mL	0.809	0.798	0.799
S. aureus Newman [3], partner 0.6 µg/mL	0.624	0.602	0.617
S. pneumoniae D39V [2], partner 1.2 µg/mL	0.977	0.994	0.963
S. pneumoniae D39V [2], partner 2.4 µg/mL	0.994	≥ 1	0.945
S. pneumoniae D39V [2], partner 4.8 µg/mL	0.993	≥ 1	0.961

fitness, B. subtilis 168 [4], one replicate
Conditions	first compound 85.5 µg/mL	first compound 171 µg/mL	first compound 342 µg/mL
partner 0.15 µg/mL	0.98	0.945	0.891
partner 0.3 µg/mL	0.948	0.988	0.954
partner 0.6 µg/mL	0.901	0.944	0.881

Conditions	Bliss interaction score
B. subtilis 168 [8]	0.0445
S. aureus DSM 20231 [5]	-0.076
S. aureus Newman [7]	0.0489
S. pneumoniae D39V [6]	0.0574

CCN(CC)CCOC(=O)c1ccc(N)cc1 [Procaine] + CN[C@@H]1[C@H](O)[C@H](NC)[C@H]2O[C@@]3(O)C(=O)C[C@@H](C)O[C@H]3O[C@@H]2[C@H]1O [Spectinomycin]
fitness
Conditions	first compound 85.5 µg/mL	first compound 171 µg/mL	first compound 342 µg/mL
B. subtilis 168 [4], partner 2 µg/mL	0.972	0.926	0.923
B. subtilis 168 [4], partner 4 µg/mL	0.938	0.963	0.93
B. subtilis 168 [4], partner 8 µg/mL	0.895	0.84	0.824
S. aureus DSM 20231 [1], partner 4 µg/mL	0.959	0.931	0.914
S. aureus DSM 20231 [1], partner 8 µg/mL	0.948	0.911	0.928
S. aureus DSM 20231 [1], partner 16 µg/mL	0.82	0.848	0.868
S. aureus Newman [3], partner 4 µg/mL	0.886	0.891	0.89
S. aureus Newman [3], partner 8 µg/mL	≥ 1	0.968	0.962
S. aureus Newman [3], partner 16 µg/mL	0.896	0.905	0.88
S. pneumoniae D39V [2], partner 4 µg/mL	≥ 1	0.973	0.914
S. pneumoniae D39V [2], partner 8 µg/mL	0.964	0.955	0.929

fitness, one replicate
Conditions	first compound 85.5 µg/mL	first compound 171 µg/mL	first compound 342 µg/mL
S. aureus DSM 20231 [1], partner 32 µg/mL	0.744	0.724	0.813
S. aureus DSM 20231 [1], partner 64 µg/mL	0.0918	0.0696	0.107
S. aureus Newman [3], partner 32 µg/mL	0.678	0.652	0.629
S. aureus Newman [3], partner 64 µg/mL	0.139	0.132	0.147
S. pneumoniae D39V [2], partner 16 µg/mL	0.866	0.857	0.849

Conditions	Bliss interaction score
B. subtilis 168 [8]	-0.0468
S. aureus DSM 20231 [5]	0.0496
S. aureus Newman [7]	0.0891
S. pneumoniae D39V [6]	0.0382

CCN(CC)CCOC(=O)c1ccc(N)cc1 [Procaine] + COc1ccc(C[C@H](N)C(=O)N[C@H]2[C@@H](O)[C@H](n3cnc4c(N(C)C)ncnc43)O[C@@H]2CO)cc1 [Puromycin]
fitness
Conditions	first compound 85.5 µg/mL	first compound 171 µg/mL	first compound 342 µg/mL
B. subtilis 168 [4], partner 0.39 µg/mL	0.931	0.964	0.899
B. subtilis 168 [4], partner 0.78 µg/mL	0.935	0.913	0.896
B. subtilis 168 [4], partner 1.56 µg/mL	0.934	0.967	0.958
S. aureus DSM 20231 [1], partner 0.39 µg/mL	0.996	≥ 1	0.916
S. aureus DSM 20231 [1], partner 0.78 µg/mL	≥ 1	≥ 1	≥ 1
S. aureus DSM 20231 [1], partner 1.56 µg/mL	0.994	≥ 1	≥ 1
S. aureus Newman [3], partner 0.39 µg/mL	≥ 1	≥ 1	≥ 1
S. aureus Newman [3], partner 0.78 µg/mL	≥ 1	0.977	0.936
S. aureus Newman [3], partner 1.56 µg/mL	≥ 1	≥ 1	≥ 1
S. pneumoniae D39V [2], partner 1 µg/mL	0.974	0.951	0.958
S. pneumoniae D39V [2], partner 2 µg/mL	0.948	0.966	0.955
S. pneumoniae D39V [2], partner 4 µg/mL	0.789	0.831	0.814

fitness, S. aureus DSM 20231 [1], one replicate
Conditions	first compound 85.5 µg/mL	first compound 171 µg/mL	first compound 342 µg/mL
partner 3.12 µg/mL	0.86	0.879	≥ 1
partner 6.24 µg/mL	0.592	0.646	0.618

Conditions	Bliss interaction score
B. subtilis 168 [8]	0.0785
S. aureus DSM 20231 [5]	0.047
S. aureus Newman [7]	0.063
S. pneumoniae D39V [6]	0.0736

CCN(CC)CCOC(=O)c1ccc(N)cc1 [Procaine] + Cc1cc(NS(=O)(=O)c2ccc(N)cc2)no1 [Sulfamethoxazol]
fitness
Conditions	B. subtilis 168 [4]	S. aureus DSM 20231 [1]	S. aureus Newman [3]	S. pneumoniae D39V [2]
first compound 85.5 µg/mL, partner 1 µg/mL	0.909	0.976	0.999	0.991
first compound 85.5 µg/mL, partner 2 µg/mL	0.88	0.979	0.984	0.982
first compound 85.5 µg/mL, partner 4 µg/mL	0.905	0.999	0.959	0.924
first compound 171 µg/mL, partner 1 µg/mL	0.865	0.992	0.99	0.979
first compound 171 µg/mL, partner 2 µg/mL	0.836	≥ 1	0.981	≥ 1
first compound 171 µg/mL, partner 4 µg/mL	0.936	≥ 1	0.937	0.923
first compound 342 µg/mL, partner 1 µg/mL	0.88	0.944	–	0.979
first compound 342 µg/mL, partner 2 µg/mL	0.78	≥ 1	–	0.974
first compound 342 µg/mL, partner 4 µg/mL	0.918	≥ 1	–	0.908

fitness, one replicate
Conditions	first compound 85.5 µg/mL	first compound 171 µg/mL	first compound 342 µg/mL
B. subtilis 168 [4], partner 0.5 µg/mL	0.971	0.908	0.963
S. aureus Newman [3], partner 8 µg/mL	0.88	0.892	0.934

Conditions	Bliss interaction score
B. subtilis 168 [8]	-0.0492
S. aureus DSM 20231 [5]	0.0626
S. aureus Newman [7]	0.0323
S. pneumoniae D39V [6]	0.0407

Cn1nnc(-c2ccc(-c3ccc(N4C[C@H](CO)OC4=O)cc3F)cn2)n1 [Tedizolid]
fitness
Conditions	0.0312 µg/mL	0.0625 µg/mL	0.125 µg/mL	0.25 µg/mL	0.5 µg/mL
B. subtilis 168 [4]	0.943	0.901	0.643	–	–
S. aureus DSM 20231 [1]	–	0.923	0.809	0.229	–
S. aureus Newman [3]	–	0.936	0.859	0.434	–
S. pneumoniae D39V [2]	–	–	0.719	0.416	0.168

Conditions	MIC [µg/mL]
B. subtilis 168 [12]	0.5 (≈ 1.35 µM)
S. aureus DSM 20231 [9]	0.3 (≈ 0.81 µM)
S. aureus Newman [11]	0.3 (≈ 0.81 µM)
S. pneumoniae D39V [10]	0.125 (≈ 0.338 µM)
